Results: patent US20050113443A1, “Modulation of airway inflammation in patients with cystic fibrosis and related diseases” (priority 2003, published 2005)

How the values were obtained:
[1] = tested on: primary human bronchial epithelial cells; experiment: P. aeruginosa-induced IL-8 secretion by primary human bronchial epithelial cells (ELISA); type: cell-based; details: cells treated 2 h with analogue (nanomolar concentrations), stimulated 1 h with 3×10^7 cfu P. aeruginosa PA01, supernatants after 4 more hours, vs vehicle (0.01% ethanol), FIG. 2, P<0.002
Method: We further examined whether LX analogues were able to inhibit P. aeruginosa-induced IL 8 production from primary human bronchial epithelial cells. Primary bronchial epithelial cells from non-smokers obtained from Clonetics/Cambrex were grown until subconfluent, treated for 2 h with LXA4 analogue or vehicle control (0.01% ethanol), stimulated for 1 h with 3×10^7 cfu of P. aeruginosa strain PA01, and subsequently washed. Cell-free supernatants were harvested after 4 more hours of incubation, and analyzed by ELISA for IL-8 secretion. For this purpose we used the metabolically stable analog 15-epi-16-(p-fluorophenoxy) LXA4 methyl ester, prepared according to Example 2. […] Primary human bronchial epithelial cells were pretreated with an LXA4 analogue (15-epi-16-[p-fluorophenoxy LXA4] methyl ester) or vehicle control and subsequently stimulated with P. aeruginosa strain PA01. IL-8 was measured in cell-free supernatants. Mean IL-8 production was 1620±116 pg/ml in vehicle control cultures.

[2] = tested on: C57BL/6 mice challenged intratracheally with mucoid P. aeruginosa (strain M57-15); experiment: Mouse model of chronic airway inflammation and infection of cystic fibrosis (mucoid P. aeruginosa entrapped in agarose beads); type: in vivo; details: vs vehicle controls
Text: Chronic infections with mucoid P. aeruginosa tend to persist in patients with CF. In turn, chronic airway infection with mucoid P. aeruginosa is a major cause of morbidity and mortality among CF patients. In order to achieve chronic airway infections with P. aeruginosa in murine models, it is necessary to enmesh the bacteria with an immobilizing agent such as agar (Pediatr Pulmonol 30:413.; Lab Animals 36:291). This also provides an experimental mimic of the growth of P. aeruginosa as a biofilm, which appears to be its predominant state in the CF airway (Pediatr Pulmonol 30:413, 2000; Pediatr Res 22:698, 1987; Trends Microbiol 9:50, 2001). C57/B16 mice are used, as the inflammatory response to P. aeruginosa infection of this moderately susceptible strain is a fair mimic of that seen in CF patients (Pediatr Pulmonol 30:413). Indeed, in C57/B16 mice, agar bead delivery of P. aeruginosa leads to histopathological changes, including bronchiectasis, similar to those found in patients with CF (Pediatr Pulmonol 30:413, 2000). This chronic model allows for the characterization of the effects of LX analogues on chronic, ongoing airway infection and inflammation using a model that is highly relevant to, and a reasonable mimic of, the CF airway.
Modifications were made in a previously described model (van Heeckeren, A. M. etal Lab Anim 36, 291, 2002). 6-8 week old female C57BL/6 mice were immunized in the dermis of the ear with heat-killed P. aeruginosa (mucoid strain M57-15) in incomplete Freund's adjuvant 10 days prior to P. aeruginosalagar bead challenge. Mice were challenged intratracheally (non-traumatically as previously described, Wills-Karp, M. et al. Science 282, 2258, 1998) with 3×10^4 P. aeruginosa (mucoid strain M57-15) entrapped in […] agarose beads. Beginning 1 day prior to such challenge, mice were treated with an LXA4 analogue (15-epi-16-[p-fluorophenoxy LXA4] methyl ester) by oral administration, through placing 10 μg/ml of the analogue in the drinking water (Gewirtz, A. T. et al. J Immunol 168, 5260, 2002), supplemented with a single daily intravenous dose of 1 μg by tail vein. Controls received trace volumes (identical to that administered to lipoxin analogue-treated mice) of ethanol in drinking water and intravenously. Mice were weighed daily. Five days after P. aeruginosa/agar bead challenge, mice were sacrificed, BAL was performed, and lungs were harvested for measurement of lung Pseudomonas burden and myeloperoxidase by standard techniques (van Heeckeren, A. M. et al Lab Anim 36, 291, 2002; Wills-Karp, M. et al. Science 282, 2258, 1998; Andrews, P. C. et al. Anal Biochem 127, 346, 1982). Animal care was provided in accordance with National Institutes of Health guidelines. This was done in order to model an additional immunological feature of individuals with cystic fibrosis and P. aeruginosa colonization/infection: potent adaptive immune responses, marked by anti-pseudomonal antibodies and T cells reactive with pseudomonal proteins.
C57/B16 mice were challenged intratracheally (non-traumatically as previously described [Science 282:2258, 1998; Nature Immunol 1:221,2000]) with 3×10^4 P. aeruginosa (mucoid strain M57-15) entrapped in agar beads (70-200 uM). […]

In the case of `COC(=O)CCC[C@H](O)[C@H](O)/C=C/C=C/C=C\C=C\[C@H](O)COc1ccc(F)cc1` [(5S, 6R, 15S)-trihydroxy-16-(4-fluorophenoxy)-hexadeca-(7E, 9E, 11Z,13E)-tetraenoic acid methyl ester], the “P. aeruginosa-mediated IL-8 secretion” value [1] was “inhibits”, the “P. aeruginosa-mediated IL-8 secretion” value ([1]; listed as LXA4 analogue) was “significantly inhibits” and the weight loss ([2]; 10 μg/ml in drinking water plus 1 μg i.v. daily from 1 day before challenge, weighed daily, FIG. 3) was “less weight loss”. For the same molecule, the “recovery of lost weight” value ([2]; 10 μg/ml in drinking water plus 1 μg i.v. daily, weighed daily, FIG. 3) was “earlier and more complete recovery of lost weight”, the “bronchoalveolar lavage total cell counts” value ([2]; BAL five days after challenge, FIG. 4A) was “significant suppression of total cell counts” and the “airway neutrophilia (BAL neutrophils)” value ([2]; BAL five days after challenge, FIG. 4B) was “significant inhibition of airway neutrophilia”. For the same molecule, the airway lymphocyte counts ([2]; BAL five days after challenge, FIG. 4C) was “significant increase in airway lymphocyte counts”, the “percentage of airway macrophages” value ([2]; BAL five days after challenge, FIG. 4D) was “increase in the percentage of airway macrophages” and the “neutrophil/lymphocyte ratio in the airway” value ([2]; BAL five days after challenge, FIG. 4E) was “significant decrease”. The “neutrophil/macrophage ratio in the airway” value ([2]; BAL five days after challenge, FIG. 4F) was “significant decrease”, the “whole lung P. aeruginosa burden” value ([2]; lungs harvested five days after challenge, quantitative microbiological techniques, FIG. 6) was “decrease in lung bacterial burden” and the “whole lung myeloperoxidase levels (neutrophil accumulation in the lung parenchyma)” value ([2]; lungs harvested five days after challenge, FIG. 5) was “significantly reduced neutrophil accumulation in the lung parenchyma”.
